Assay results published in PubChem BioAssay (NCI).
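The compound was tested at five concentrations on cells cultured in 96-well plates, with a 48-hour exposure period. The concentration for full growth arrest is given as TGI.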

Key:
Test in all cases: growth of human tumour cells (NCI), 48 h
A549 NSCLC = system: A549 NSCLC
CAKI-1 renal = system: CAKI-1 renal
CCRF-CEM leukemia = system: CCRF-CEM leukemia
HS 578T breast = system: HS 578T breast
LOX IMVI melanoma = system: LOX IMVI melanoma
MCF7 breast = system: MCF7 breast
MDA-MB-435 = system: MDA-MB-435
NCI/ADR-RES ovarian = system: NCI/ADR-RES ovarian
SF-295 CNS = system: SF-295 CNS
SF-539 CNS = system: SF-539 CNS
SK-MEL-28 melanoma = system: SK-MEL-28 melanoma
SNB-75 CNS = system: SNB-75 CNS
TK-10 renal = system: TK-10 renal
U251 CNS = system: U251 CNS
UACC-62 melanoma = system: UACC-62 melanoma
UO-31 renal = system: UO-31 renal
OVCAR-3 ovarian = system: OVCAR-3 ovarian
SK-OV-3 ovarian = system: SK-OV-3 ovarian
BT-549 breast = system: BT-549 breast

Row | Compound | TGI (A549 NSCLC) | TGI (CAKI-1 renal) | TGI (CCRF-CEM leukemia) | TGI (HS 578T breast) | TGI (LOX IMVI melanoma) | TGI (MCF7 breast) | TGI (MDA-MB-435) | TGI (NCI/ADR-RES ovarian) | TGI (SF-295 CNS) | TGI (SF-539 CNS) | TGI (SK-MEL-28 melanoma) | TGI (SNB-75 CNS) | TGI (TK-10 renal) | TGI (U251 CNS) | TGI (UACC-62 melanoma) | TGI (UO-31 renal) | TGI (OVCAR-3 ovarian) | TGI (SK-OV-3 ovarian) | TGI (BT-549 breast)
1 | CN(CC(=O)O)c1ncc2c(n1)-c1ccccc1SC2 | > 100 µM | > 100 µM | > 100 µM | > 100 µM | > 100 µM | > 100 µM | > 100 µM | > 100 µM | > 100 µM | > 100 µM | > 100 µM | > 100 µM | > 100 µM | > 100 µM | > 100 µM | > 100 µM | – | – | –
2 | COc1cc2cc3c4c(cc(OC)c(OC)c4c2cc1OC)CCN3C(=O)OCCN1CCNCC1 | 34.4 µM | 28.5 µM | 44.6 µM | – | 26.6 µM | – | – | – | 28.2 µM | 28.4 µM | 36.6 µM | 27.5 µM | 28.3 µM | 28.9 µM | 28.1 µM | 28.1 µM | 28.8 µM | 31.8 µM | –
3 | CC(=O)Nc1ccc(C(=O)NN2C(=O)CSC2c2ccc([N+](=O)[O-])cc2)cc1 (centres undefined) | > 100 µM | – | > 100 µM | > 100 µM | – | > 100 µM | > 100 µM | > 100 µM | > 100 µM | > 100 µM | > 100 µM | > 100 µM | > 100 µM | > 100 µM | > 100 µM | > 100 µM | > 100 µM | > 100 µM | –
4 | O=c1[nH]c2c(nc1NC13CC4CC(CC(C4)C1)C3)c(=O)oc1ccccc12 | > 100 µM | 46 µM | > 100 µM | – | > 100 µM | – | – | – | – | 35.8 µM | > 100 µM | > 100 µM | > 100 µM | 33.1 µM | > 100 µM | > 100 µM | > 100 µM | > 100 µM | –
5 | NC1CC(=O)c2c(Br)csc21 (centres undefined) | > 100 µM | > 100 µM | > 100 µM | – | – | > 100 µM | 66.3 µM | > 100 µM | – | > 100 µM | 79.9 µM | > 100 µM | 96.7 µM | 53.1 µM | 58.7 µM | 81.2 µM | > 100 µM | > 100 µM | 97.5 µM
6 | O=C(NCC(=O)N1CCCC1C(=O)OC(=O)C1CCCN1C(=O)CNC(=O)OCc1ccccc1)OCc1ccccc1 (centres undefined) | > 100 µM | > 100 µM | > 100 µM | > 100 µM | 36.2 µM | 60 µM | 68.3 µM | > 100 µM | 47.8 µM | 40.6 µM | 70.4 µM | 57.2 µM | 49.7 µM | > 100 µM | 34.6 µM | > 100 µM | > 100 µM | > 100 µM | –
7 | O=c1[nH]c(=O)n(C2OC(CO)C(O)C2O)cc1NN=NCc1ccccc1 (centres undefined) | > 100 µM | > 100 µM | > 100 µM | – | > 100 µM | – | – | – | > 100 µM | > 100 µM | > 100 µM | > 100 µM | > 100 µM | > 100 µM | > 100 µM | > 100 µM | > 100 µM | > 100 µM | –
8 | CCN(CC)CC1CCCCCCCCCCC1=O (centres undefined) | > 100 µM | – | > 100 µM | – | > 100 µM | – | – | – | > 100 µM | – | > 100 µM | > 100 µM | > 100 µM | > 100 µM | > 100 µM | > 100 µM | > 100 µM | – | –
9 | CO/N=C/c1cc(OC)c(OC)c(OC)c1 | > 100 µM | > 100 µM | > 100 µM | – | > 100 µM | – | – | – | > 100 µM | > 100 µM | > 100 µM | > 100 µM | > 100 µM | > 100 µM | > 100 µM | > 100 µM | > 100 µM | > 100 µM | –
10 | CC(=O)c1ccc(NCc2cc(O)ccc2O)cc1 | – | 34.6 µM | > 100 µM | > 100 µM | 74.3 µM | > 100 µM | 58.6 µM | > 100 µM | 34.6 µM | 33 µM | > 100 µM | 28 µM | 29 µM | 54.5 µM | 29.8 µM | 23.9 µM | 19.8 µM | 59.8 µM | –
11 | COc1cc(/C=C2\C[C@H]3[C@@H]4CCc5cc(O)ccc5[C@H]4CC[C@]3(C)C2=O)cc(OC)c1OC | 31.8 µM | 26.6 µM | 27.4 µM | – | 30.7 µM | > 100 µM | 48.6 µM | 39.5 µM | 27.4 µM | 90.5 µM | 24.8 µM | 26.4 µM | 25.1 µM | 38.1 µM | 52.2 µM | 29.4 µM | 26.9 µM | 48.3 µM | 42.6 µM
12 | CC(=O)Nc1ccc(N2C(=O)/C(=C\c3cccc(Oc4ccccc4)c3)S(=O)(=O)C2c2ccccc2)cc1 (centres undefined) | > 100 µM | > 100 µM | > 100 µM | – | > 100 µM | > 100 µM | > 100 µM | > 100 µM | > 100 µM | 62.5 µM | > 100 µM | > 100 µM | > 100 µM | > 100 µM | > 100 µM | > 100 µM | > 100 µM | > 100 µM | > 100 µM
13 | CC(C)CC1C(=O)NCCC(NC(=O)C(Cc2ccc(OC(C)(C)C)cc2)NC(=O)OC(C)(C)C)C(=O)NC(Cc2ccccc2)C(=O)NC(Cc2ccccc2)NC1=O (centres undefined) | – | > 100 µM | 55 µM | > 100 µM | 19.3 µM | 52.3 µM | 12.2 µM | > 100 µM | 22.8 µM | 44.9 µM | 42.4 µM | – | 33.8 µM | 27.2 µM | 31.1 µM | > 100 µM | 19.9 µM | 45.9 µM | –
14 | CC1(C)COC(c2cccnc2/C=N/O)=N1 | > 100 µM | > 100 µM | > 100 µM | – | > 100 µM | – | – | – | > 100 µM | > 100 µM | > 100 µM | > 100 µM | > 100 µM | > 100 µM | > 100 µM | > 100 µM | > 100 µM | > 100 µM | –
15 | CN(C(=O)C1=CCC2(CC1)OCCO2)c1ccccc1OS(=O)(=O)C(F)(F)F | > 100 µM | > 100 µM | > 100 µM | – | > 100 µM | > 100 µM | > 100 µM | > 100 µM | > 100 µM | – | > 100 µM | 79.5 µM | – | > 100 µM | > 100 µM | > 100 µM | > 100 µM | > 100 µM | –
16 | CNc1ccc(C(=O)CC(O)CCC(C)C2OC(=O)CC(O)CC(=O)CC(O)CC(O)CC(O)CC(O)CC3(O)CC(O)C(C(=O)NCCN(C)C)C(CC(OC4OC(C)C(O)C(NC(=O)CN5CCN(C)CC5)C4O)/C=C/C=C/C=C/C=C\C=C/C=C/C=C/C2C)O3)cc1 (centres undefined) | > 100 µM | > 100 µM | – | – | – | – | > 100 µM | > 100 µM | > 100 µM | > 100 µM | 45.7 µM | > 100 µM | > 100 µM | > 100 µM | > 100 µM | > 100 µM | – | > 100 µM | > 100 µM
17 | COc1cc(C(=O)n2c3ccc(Br)cc3c3nc4ccccc4nc32)cc(OC)c1OC | – | > 100 µM | > 100 µM | – | > 100 µM | > 100 µM | > 100 µM | > 100 µM | > 100 µM | > 100 µM | > 100 µM | > 100 µM | > 100 µM | > 100 µM | > 100 µM | > 100 µM | > 100 µM | – | > 100 µM
18 | Cc1cc(N)c(C)c2c1[nH]c1ccc(O)cc12 | > 100 µM | > 100 µM | 91.5 µM | – | > 100 µM | – | – | – | > 100 µM | > 100 µM | > 100 µM | – | > 100 µM | > 100 µM | – | > 100 µM | > 100 µM | – | –
19 | CCOC(=O)C1(C#N)C(c2ccccc2)CC(O)(c2ccc(OC)cc2)C(C(=O)c2ccc(OC)cc2)C1c1ccccc1 (centres undefined) | > 100 µM | > 100 µM | > 100 µM | – | > 100 µM | – | – | – | > 100 µM | – | > 100 µM | 95.3 µM | > 100 µM | > 100 µM | > 100 µM | > 100 µM | > 100 µM | > 100 µM | –
20 | COc1ccc(N2C(=O)C(=O)N(c3ccccc3[N+](=O)[O-])C2=S)cc1 | > 100 µM | > 100 µM | > 100 µM | 84 µM | 32.4 µM | – | 88.2 µM | 64.2 µM | > 100 µM | 88.3 µM | > 100 µM | > 100 µM | 65.7 µM | > 100 µM | 32.5 µM | > 100 µM | – | 86.1 µM | –
21 | CS(=O)(=O)O[C@H]1CN2C[C@@H](O)[C@@H](O)[C@H]2[C@H]1CO | > 100 µM | > 100 µM | > 100 µM | – | > 100 µM | > 100 µM | > 100 µM | > 100 µM | > 100 µM | > 100 µM | > 100 µM | – | > 100 µM | > 100 µM | > 100 µM | > 100 µM | > 100 µM | > 100 µM | > 100 µM
22 | CC(C)(C)NC(NC(C)(C)C)=C(/C=C(/Cl)[N+](=O)[O-])[N+](=O)[O-] | 95.3 µM | > 100 µM | > 100 µM | > 100 µM | > 100 µM | > 100 µM | 38.3 µM | – | > 100 µM | > 100 µM | > 100 µM | 87.2 µM | > 100 µM | > 100 µM | > 100 µM | > 100 µM | 49.7 µM | > 100 µM | –
